14 molecules from US20160201045A1, “Endo-xylanase and Coding Gene and Use Thereof” (SHANGHAI INSTITUTES FOR BIOLOGICAL SCIENCES CHINESE ACADEMY …, priority 2013, published 2016) can be followed below.

One data set concerns Xyl7. In words: Effect of different chemical agents and metal ions on the enzymatic activity of Xyl7. In kind it is biochemical, microorganisms in termite gut. The following applies: for Relative Activity (%) of Xyl7: Metal Ion or Chemical Agent 10 mM, enzyme without agent = 100%; for action on Xyl7 (in words) / increase for the activity of the enzyme: 10 mmol/L. As for the experimental part:
(§1) In a 100 μl reaction system, birch xylan was added to a final concentration of 1% (w/w), and Na2HPO4/NaH2PO4 buffer (pH7.0) was added to a final concentration of 100 mM. A suitable amount of enzyme solution diluted by the abovementioned buffer was added to the reaction system for reaction at 50[…] for 10 minutes. 100 μl DNS were added to stop the reaction. For the control, 100 μl DNS were firstly added to the above reaction system before adding the enzyme solution. The reaction mixtures were subjected to a boiled water bath for 5 minutes to develop color. Absorbance value at 540 nm was detected by a microplate reader. After subtracting the absorbance value of the control from that of the sample, the enzymatic activity unit (U) was calculated based on the standard curve.
Various compounds were added into the reaction system to a final concentration of 10 mmol/L. Enzymatic activity was tested according to the above standard enzymatic activity detection steps. The specific activity value of the enzyme without treated by any chemical agent or metal ion was used as a reference value and its relative activity was defined as 100%.

A short description of data set [1]: Detection on the optimum temperature. In kind it is biochemical. To be noted: compared with Xyl7. As for the experimental part:
as §1
Enzymatic activity was detected according the above standard enzymatic activity detection steps at pH 7.0 and a temperature in the range of 25-80° C. The optimum temperature of Xyl7 was in the range of 50-55° C., with an activity at 50[…] slightly higher than that at 55[…]. Thus, the specific activity value of the enzyme at 50[…] was used as a reference value and its relative activity was defined as 100%. The relative activity of the enzyme at each temperature was a ratio between the specific activity value of the enzyme at each temperature and the reference value.

The nature of data set [2]: Standard enzymatic activity detection (DNS method) on birch xylan. In kind it is biochemical. To be noted: standard steps: 1% birch xylan, pH7.0, 50, 10 minutes. The protocol:
Enzymatic activity of the endo-1,4-β-xylanase was tested by a DNS method as follows:
10 g NaOH were weighed and dissolved in about 400 ml ddH2O. 10 g dinitrosalicylic acid, 2 g phenol, 0.5 g anhydrous sodium sulfite and 200 g potassium sodium tartrate tetrahydrate were weighed and dissolved in about 300 ml ddH2O. The two solutions were mixed, diluted to 1 liter and preserved in dark.
100 μl DNS were added into each of the above standard samples. The mixtures were subjected to boiled water bath for 5 minutes for developing color. Absorbance value at 540 nm was detected by a microplate reader. Standard sample 1 was a blank control. The absorbance value of the blank control was subtracted from that of each sample and then the standard curve was plotted.
as §1
Definition of enzymatic activity unit (U): 1U refers to the amount of enzyme required for catalytically hydrolyzing xylan to produce 1 μmol xylose.
Definition of specific activity unit: enzymatic activity of 1 mg protein (U/mg).
Various substrates with a final concentration of 2% (w/w) were treated by a suitable amount of enzymes at pH7.0 and 50[…] for 10 minutes. Enzymatic activity was tested according to the above standard enzymatic activity detection steps. […] No detectable enzymatic activity was found for the other test substrates. […]

As for `[Al+3]` [Al^3+], in the data set with Xyl7, the “Relative Activity (%) of Xyl7” value was determined as 77.68 ± 2.32%.
As for `[Ba+2]` [Ba^2+], the “Relative Activity (%) of Xyl7” value in the data set on Xyl7 worked out at 90.71 ± 1.94%.
In the case of `[Ca+2]` [Ca^2+], the “Relative Activity (%) of Xyl7” value with Xyl7 turned out to be 90.1 ± 12.82%.
As to `[Co+2]` [Co^2+], in the data set with Xyl7, the “action on Xyl7 (in words)” value was “could activate” and the “Relative Activity (%) of Xyl7” value came to 109.14 ± 3.45%.
Regarding `[Cu+2]` [Cu^2+], in the data set with Xyl7, the “action on Xyl7 (in words)” value is reported as “could activate” and the “Relative Activity (%) of Xyl7” value turned out to be 108.69 ± 2.99%.
On the same counts, the results for `O=C(O)CN(CCN(CC(=O)O)CC(=O)O)CC(=O)O` [EDTA] are “obviously inhibited” and 88.65 ± 1.62%.
With `[Fe+2]` [Fe^2+], in the data set with Xyl7, the “action on Xyl7 (in words)” value is on record as “obviously inhibited” and the “Relative Activity (%) of Xyl7” value was 25.33 ± 0.46%. Besides, in the data set on Xyl7 (listed as Fe^3+), the “Relative Activity (%) of Xyl7” value is recorded as 90.41 ± 3.36%.
`[K+]` [K^+]: in the data set on Xyl7, the “action on Xyl7 (in words)” value is given as “could activate”, the “increase for the activity of the enzyme” value is recorded as “about 20%” and the “Relative Activity (%) of Xyl7” value is recorded as 125.6 ± 11.98%.
As to `[Mg+2]` [Mg^2+], in the data set on Xyl7, the “action on Xyl7 (in words)” value is “no obvious action” and the “Relative Activity (%) of Xyl7” value turned out to be 101.53 ± 3.02%.
As for `[Mn+2]` [Mn^2+], in the data set on Xyl7, the “action on Xyl7 (in words)” value is “could activate”, the “increase for the activity of the enzyme” value was “about 20%” and the “Relative Activity (%) of Xyl7” value is 125.73 ± 7.8%.
For the molecule `[Ni+2]` [Ni^2+], in the data set on Xyl7, the “action on Xyl7 (in words)” value is reported as “obviously inhibited” and the “Relative Activity (%) of Xyl7” value turned out to be 44.25 ± 4.98%.
On the same counts, the results for `[Zn+2]` [Zn^2+] are “obviously inhibited” and 64.88 ± 1.36%.

B1: Xyl7R3: fragment of Xyl7 consisting of amino acids 19-272 of SEQ ID NO:2 (protein)
chain: AQGPTWTTSTIQAYNGYDYELWNQNNAGTVSMKLTGDNGSGASAVGGTFTATWSNTQNVLFRSGKKWGSSSNQNHTQIGNMSINFAATWSSTDNVKMLGVYGWAYFTSANVPTKQENGTNASFSNQIEYYIIQDRGSYNPASGGTNAKKYGSATIDGIAYDFYVCDRINQPMLTGNGNFKQFFSVPQSASAHRTSGTISVSQHFNKWHELGMKMDGPLYEVAMKVESYTGSGSSNGSATVTKNLLTIGGTTPTP
modifications: Intestinal tract metagenome of termite
For B1, the “optimum temperature and tolerance on temperature” value in data set [1] is given as “almost identical to those of Xyl7”. For the same molecule, the “specific activity by the standard enzymatic activity detection steps of Example 3” value in data set [2] stood at 8775 U/mg.

B2: Xyl7R2: fragment of Xyl7 consisting of amino acids 19-267 of SEQ ID NO:2 (protein)
chain: AQGPTWTTSTIQAYNGYDYELWNQNNAGTVSMKLTGDNGSGASAVGGTFTATWSNTQNVLFRSGKKWGSSSNQNHTQIGNMSINFAATWSSTDNVKMLGVYGWAYFTSANVPTKQENGTNASFSNQIEYYIIQDRGSYNPASGGTNAKKYGSATIDGIAYDFYVCDRINQPMLTGNGNFKQFFSVPQSASAHRTSGTISVSQHFNKWHELGMKMDGPLYEVAMKVESYTGSGSSNGSATVTKNLLTIGG
modifications: Intestinal tract metagenome of termite
As for B2, the “specific activity by the standard enzymatic activity detection steps of Example 3” value in data set [2] was 8560 U/mg.
